Measured values reported in patent publication US8710233B2 (Gruenenthal GmbH, priority 2005, dated 2014).
Read-outs that look alike come from different tables or passages of the source. Each block holds one compound with its values, some of them ahead of it.

How the values were obtained:
vanilloid receptor (VR1) [1] = biological target: T1, vanilloid receptor (VR1) (Homo sapiens, UniProt Q8NER1); experiment: FLIPR Ca2+ influx assay on CHO K1 cells transfected with the VR1 gene (pharmacological method II); type: cell-based; details: for inhibition at 1 µM / inhibition in percent, Ki (human) Cap.: ne = no effect, @ 1 μM
T1 construct: expressed in transfected cells; host or cells: CHO K1 cells (ECACC), stably transfected
T1 sequence (Q8NER1 whole entry): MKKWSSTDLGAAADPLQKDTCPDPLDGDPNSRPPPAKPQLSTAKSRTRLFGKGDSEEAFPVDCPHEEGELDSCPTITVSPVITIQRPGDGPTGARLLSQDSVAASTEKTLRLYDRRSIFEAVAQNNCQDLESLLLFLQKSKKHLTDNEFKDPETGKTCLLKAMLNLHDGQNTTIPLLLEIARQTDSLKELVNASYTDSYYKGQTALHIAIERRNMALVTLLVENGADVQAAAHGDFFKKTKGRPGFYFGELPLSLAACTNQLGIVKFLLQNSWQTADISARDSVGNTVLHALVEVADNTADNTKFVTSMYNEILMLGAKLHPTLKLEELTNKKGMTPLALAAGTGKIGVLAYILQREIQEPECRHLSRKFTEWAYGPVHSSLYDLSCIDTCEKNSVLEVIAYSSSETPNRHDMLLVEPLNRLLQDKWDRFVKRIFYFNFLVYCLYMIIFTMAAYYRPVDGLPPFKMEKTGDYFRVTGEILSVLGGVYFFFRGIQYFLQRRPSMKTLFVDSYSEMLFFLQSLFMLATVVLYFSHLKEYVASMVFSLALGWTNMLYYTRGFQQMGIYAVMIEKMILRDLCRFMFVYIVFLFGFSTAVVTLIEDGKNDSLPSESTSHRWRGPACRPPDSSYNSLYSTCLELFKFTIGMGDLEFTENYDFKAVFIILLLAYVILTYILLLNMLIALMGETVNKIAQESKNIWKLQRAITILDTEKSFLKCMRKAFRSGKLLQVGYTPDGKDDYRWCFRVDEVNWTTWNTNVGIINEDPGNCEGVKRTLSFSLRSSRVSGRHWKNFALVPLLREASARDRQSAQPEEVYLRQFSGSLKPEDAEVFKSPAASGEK

[2] = biological target: T2, vanilloid receptor 1 (VR1/TRPV1) of the rat species (Rattus norvegicus, UniProt O35433); experiment: FLIPR Ca2+ influx assay on rat dorsal root ganglia cells (pharmacological method I); type: cell-based; details: for inhibition at 1 µM: read-out: inhibition in percent, Ki (rat) Cap.; for Ki: table 4, capsaicin, read-out: Ki (rat) Cap.
T2 construct: The spinal column is removed from decapitated rats; from tissue; host or cells: primary cells dissociated from rat dorsal root ganglia
T2 sequence (O35433 whole entry): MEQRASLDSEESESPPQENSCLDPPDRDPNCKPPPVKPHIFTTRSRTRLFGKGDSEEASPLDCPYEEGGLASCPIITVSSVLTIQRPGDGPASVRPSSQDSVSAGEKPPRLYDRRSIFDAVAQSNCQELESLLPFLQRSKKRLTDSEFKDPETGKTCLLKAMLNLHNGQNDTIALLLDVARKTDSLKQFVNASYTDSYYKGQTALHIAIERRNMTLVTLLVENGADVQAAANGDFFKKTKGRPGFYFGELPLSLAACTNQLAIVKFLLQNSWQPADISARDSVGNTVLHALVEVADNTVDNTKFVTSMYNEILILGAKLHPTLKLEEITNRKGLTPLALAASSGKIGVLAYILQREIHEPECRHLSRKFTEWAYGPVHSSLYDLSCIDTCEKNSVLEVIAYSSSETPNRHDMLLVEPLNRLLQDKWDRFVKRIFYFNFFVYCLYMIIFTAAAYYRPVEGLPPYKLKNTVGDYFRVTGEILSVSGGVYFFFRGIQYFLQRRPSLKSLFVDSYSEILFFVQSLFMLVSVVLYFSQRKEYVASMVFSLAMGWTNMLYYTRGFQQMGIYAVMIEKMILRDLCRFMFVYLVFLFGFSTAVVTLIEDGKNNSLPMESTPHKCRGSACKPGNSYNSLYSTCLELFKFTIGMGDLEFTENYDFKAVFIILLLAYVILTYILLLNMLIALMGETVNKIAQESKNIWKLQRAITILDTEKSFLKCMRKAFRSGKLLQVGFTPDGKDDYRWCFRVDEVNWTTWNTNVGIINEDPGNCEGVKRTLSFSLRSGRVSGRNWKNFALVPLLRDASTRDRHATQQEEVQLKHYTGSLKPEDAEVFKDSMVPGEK
Summary of the method: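 Primary rat dorsal root ganglion cells loaded with 2 μM Fluo-4, Ca2+ influx read on FLIPR as peak fluorescence. Triplicates, at least 3 independent experiments.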

VR1/TRPV1 receptor = VR1/TRPV1 receptor (Homo sapiens, UniProt Q8NER1); experiment: IC50 (human) after pH stimulus; type: cell-based; details: for IC50: table 4
VR1/TRPV1 receptor, sequence (Q8NER1 whole entry): as the sequence (Q8NER1 whole entry) above

[3] = tested on: capsaicin induced hypothermie; experiment: Hypothermie assay in the mouse (capsaicin induced hypothermie); type: in vivo; details: 0.3 mg/kg body weight po; mouse; read-out: inhibition hypothermie (n = 5)
vanilloid receptor (VR1) [4] = biological target: T1, vanilloid receptor (VR1); experiment: FLIPR Ca2+ influx assay on CHO K1 cells transfected with the VR1 gene (pharmacological method II); type: cell-based; details: table 4; capsaicin; read-out: Ki (human) Cap.
[5] = tested on: formaldehyde induced nociceptive behaviour; experiment: Formaldehyde test in mice, second (late) phase; type: in vivo, mouse; details: mouse, read-out: inhibition formaldehyde test (n = 10); for inhibition in vivo at 0.3 mg/kg: 0.3 mg/kg body weight po
[6] = CHO-K1, read-out: inhibition in percent, Ki (human) Cap.
[7] = read-out: inhibition in percent, IC50 (human) after pH stimulus
[8] = @ 10 μM, read-out: inhibition in percent, IC50 (human) after pH stimulus

Compound: CC(C(=O)NCc1ccc(C(F)(F)F)nc1N1CCC(N2CCCCC2)CC1)c1ccc(NS(C)(=O)=O)c(F)c1 (centres unmarked) [Compound 164]
inhibition at 1 µM (vanilloid receptor (VR1) [1]; [6]): 20%
inhibition at 1 µM ([2]; @ 1 μM, ne = no effect): 1.5%

Compound: CC1CCN(c2nc(C(F)(F)F)ccc2CNC(=O)C(C)c2ccc(NS(=O)(=O)C(F)(F)F)c(F)c2)CC1 (centres unmarked) [Compound 312]
inhibition at 1 µM (vanilloid receptor (VR1) [1]; [6]): 7%

Compound: CC(C(=O)NCc1ccc(C(F)(F)F)nc1OC1CCNCC1)c1ccc(NS(C)(=O)=O)c(F)c1 (centres unmarked) [Example 344, 2-(3-fluoro-4-methylsulfonamido-phenyl)-N-[2-(piperidin-4-yloxy)-6-trifluoromethyl-pyridin-3-ylmethyl]-propionamide]
inhibition at 5 µM (vanilloid receptor (VR1) [1]; [6]): 34%
inhibition in percent, IC50 (human) after pH stimulus (VR1/TRPV1 receptor; @ 1 μM, ne = no effect): ne @ 1 μM

Compound: CC(C(=O)NCc1c(CO)cc(C(C)(C)C)nc1OCc1ccccc1)c1ccc(NS(C)(=O)=O)c(F)c1 (centres unmarked) [Example 223, N-(2-benzyloxy-6-tert-butyl-4-hydroxymethyl-pyridin-3-ylmethyl)-2-(3-fluoro-4-methylsulfonamido-phenyl)-propionamide]
inhibition at 1 µM (vanilloid receptor (VR1) [1]; [6]): 38%
inhibition at 1 µM ([2]; @ 1 μM, ne = no effect): 53%
inhibition in percent, IC50 (human) after pH stimulus (VR1/TRPV1 receptor; @ 1 μM, ne = no effect): ne @ 1 μM

Compound: CC(C(=O)NCc1ccc(C(F)(F)F)nc1OCC1CCNCC1)c1ccc(NS(C)(=O)=O)c(F)c1 (centres unmarked) [Compound 343]
inhibition at 1 µM (vanilloid receptor (VR1) [1]; [6]): 8%

Compound: CC(C(=O)NCc1ccc(C(F)(F)F)nc1OC1CCNCC1)c1ccc(NS(C)(=O)=O)c(F)c1 (centres unmarked) [Compound 344]
inhibition at 1 µM (vanilloid receptor (VR1) [1]; [6]): 3%

Compound: CC(C(=O)NCc1ccc(C(F)(F)F)nc1OCc1ccncc1)c1ccc(NS(C)(=O)=O)c(F)c1 (centres unmarked) [Example 177, 2-(3-fluoro-4-methylsulfonamido-phenyl)-N-[2-(pyridin-4-ylmethoxy)-6-trifluoromethyl-pyridin-3-ylmethyl]-propionamide]
inhibition in vivo at 0.3 mg/kg [3]: 14%
Ki (vanilloid receptor (VR1) [4]): 51 nM
inhibition at 1 µM [2]: 34%
IC50 (VR1/TRPV1 receptor): 1290 nM
inhibition in vivo at 0.3 mg/kg [5]: 31%

Compound: CC(C(=O)NCc1ccc(C(F)(F)F)nc1NCc1ccc(Cl)cc1)c1ccc(NS(C)(=O)=O)c(F)c1 (centres unmarked) [Example 173, N-[2-(4-chloro-benzylamino)-6-trifluoromethyl-pyridin-3-ylmethyl]-2-(3-fluoro-4-methylsulfonamido-phenyl)-propionamide]
inhibition in vivo at 0.3 mg/kg [3]: 36%
Ki (vanilloid receptor (VR1) [4]): 65.7 nM
Ki [2]: 78.4 nM
IC50 (VR1/TRPV1 receptor): 414 nM
inhibition in vivo at 0.3 mg/kg [5]: 0%

Compound: CC(C(=S)NCc1ccc(C(F)(F)F)nc1N1CCCC1)c1ccc(NS(C)(=O)=O)c(F)c1 (centres unmarked) [Example 129, 2-(3-fluoro-4-methylsulfonamido-phenyl)-N-(2-pyrrolidin-1-yl-6-trifluoromethyl-pyridin-3-ylmethyl)-thiopropionamide]
inhibition in vivo at 0.3 mg/kg [3]: 10%
Ki (vanilloid receptor (VR1) [4]): 1.8 nM
Ki [2]: 1.6 nM
IC50 (VR1/TRPV1 receptor): 77.2 nM
inhibition in vivo at 0.3 mg/kg [5]: 5%

Compound: CC1CCN(c2nc(C(F)(F)F)ccc2CNC(=O)C(C)c2ccc(NS(=O)(=O)C(F)(F)F)c(F)c2)CC1 (centres unmarked) [Example 312, 2-(3-fluoro-4-trifluoromethylsulfonamido-phenyl)-N-(4-methyl-6′-trifluoromethyl-3,4,5,6-tetrahydro-2H-[1,2′]bipyridinyl-3′-ylmethyl)-propionamide]
inhibition at 5 µM (vanilloid receptor (VR1) [1]; [6]): 68%
inhibition in percent, IC50 (human) after pH stimulus (VR1/TRPV1 receptor; @ 1 μM, ne = no effect): ne @ 1 μM

Compound: CC(C(=O)NCc1ccc(C(F)(F)F)cc1[N+](=O)[O-])c1ccc(NS(C)(=O)=O)c(F)c1 (centres unmarked) [Example 62, 2-(3-fluoro-4-(methylsulfonamido)phenyl)-N-(2-nitro-4-(trifluoromethyl)-benzyl)propanamide]
inhibition in percent, Ki (human) Cap. (vanilloid receptor (VR1) [1]): ne @ 1 μM
inhibition in percent, Ki (rat) Cap. ([2]; @ 1 μM, ne = no effect): ne @ 1 μM
inhibition in percent, IC50 (human) after pH stimulus (VR1/TRPV1 receptor; @ 1 μM, ne = no effect): ne @ 1 μM

Compound: CC(C(=O)NCc1ccc(C(F)(F)F)nc1N1CCCC1)c1ccc(NS(C)(=O)=O)c(Br)c1 (centres unmarked) [Example 103, 2-(3-bromo-4-methylsulfonamido-phenyl)-N-(2-pyrrolidin-1-yl-6-trifluoromethyl-pyridin-3-ylmethyl)-propionamide]
inhibition in vivo at 0.3 mg/kg [3]: 39%
Ki (vanilloid receptor (VR1) [4]): 2.8 nM
Ki [2]: 4.9 nM
inhibition at 10 µM (VR1/TRPV1 receptor; [8]): 16%
inhibition in vivo at 0.3 mg/kg [5]: 36%

Compound: CC(C(=O)NCc1ncc(C(F)(F)F)cc1N1CCCC1)c1ccc(NS(C)(=O)=O)c(F)c1 (centres unmarked) [Example 78, 2-(3-Fluor-4-(methylsulfonamido)phenyl)-N-((3-(pyrrolidin-1-yl)-5-(trifluoromethyl)pyridin-2-yl)methyl)propanamide]
inhibition in percent, Ki (human) Cap. (vanilloid receptor (VR1) [1]): 15% @ 1 μM
inhibition in percent, Ki (rat) Cap. ([2]; @ 1 μM, ne = no effect): 19% @ 1 μM
inhibition in percent, IC50 (human) after pH stimulus (VR1/TRPV1 receptor; @ 10 μM): 36% @ 10 μM

Compound: CCCCNc1nc(C(F)(F)F)ccc1CNC(=O)C(C)c1ccc(NS(C)(=O)=O)c(F)c1 (centres unmarked) [Example 116, N-(2-butylamino-6-trifluoromethyl-pyridin-3-ylmethyl)-2-(3-fluoro-4-methylsulfonamido-phenyl)-propionamide]
inhibition in vivo at 0.3 mg/kg [3]: 21%
Ki (vanilloid receptor (VR1) [4]): 9.1 nM
Ki [2]: 6.6 nM
IC50 (VR1/TRPV1 receptor): 293 nM
inhibition in vivo at 0.1 mg/kg ([5]; 0.1 mg/kg body weight po): 39%

Further lines, with some results ahead:

inhibition at 0.1 µM (vanilloid receptor (VR1) [1]; CHO-K1, @ 0.1 μM, read-out: inhibition in percent, Ki (human) Cap.): 4%
Compound: CC(C(=O)NCc1c(CO)cc(C(C)(C)C)nc1OCc1ccccc1)c1ccc(NS(C)(=O)=O)c(F)c1 (centres unmarked) [Compound 223]

inhibition in percent, Ki (human) Cap. (vanilloid receptor (VR1) [1]): ne @ 1 μM
inhibition in percent, Ki (rat) Cap. ([2]; @ 1 μM, ne = no effect): ne @ 1 μM
inhibition in percent, IC50 (human) after pH stimulus (VR1/TRPV1 receptor; @ 1 μM, ne = no effect): ne @ 1 μM
Compound: CC(C(=O)NCc1ccc(C(F)(F)F)nc1N1CCC(O)CC1)c1ccc(NS(C)(=O)=O)c(F)c1 (centres unmarked) [Example 269, 2-(3-fluoro-4-methylsulfonamido-phenyl)-N-(4-hydroxy-6′-trifluoromethyl-3,4,5,6-tetrahydro-2H-[1,2′]bipyridinyl-3′-ylmethyl)-propionamide]

inhibition at 5 µM (vanilloid receptor (VR1) [1]; [6]): 55%
inhibition in percent, IC50 (human) after pH stimulus (VR1/TRPV1 receptor; @ 1 μM, ne = no effect): ne @ 1 μM
Compound: CC(C(=O)NCc1ccc(C(F)(F)F)nc1OCC1CCNCC1)c1ccc(NS(C)(=O)=O)c(F)c1 (centres unmarked) [Example 343, 2-(3-fluoro-4-methylsulfonamido-phenyl)-N-[2-(piperidin-4-ylmethoxy)-6-trifluoromethyl-pyridin-3-ylmethyl]-propionamide]

inhibition at 5 µM (vanilloid receptor (VR1) [1]; [6]): 46%
inhibition at 5 µM (VR1/TRPV1 receptor; [7]): 14%
inhibition at 10 µM (VR1/TRPV1 receptor; [8]): 31%
Compound: CC(C(=O)NCc1ccc(C(F)(F)F)nc1N1CCS(=O)(=O)CC1)c1ccc(NS(C)(=O)=O)c(F)c1 (centres unmarked) [Example 314, N-[2-(1,1-dioxo-1l6-thiomorpholin-4-yl)-6-trifluoromethyl-pyridin-3-ylmethyl]-2-(3-fluoro-4-methylsulfonamido-phenyl)-propionamide]

inhibition in percent, Ki (human) Cap. (vanilloid receptor (VR1) [1]): ne @ 1 μM
inhibition in percent, Ki (rat) Cap. ([2]; @ 1 μM, ne = no effect): ne @ 1 μM
inhibition at 10 µM (VR1/TRPV1 receptor; [8]): 47%
Compound: CC(C(=O)NCc1ccc(C(F)(F)F)cc1N)c1ccc(NS(C)(=O)=O)c(F)c1 (centres unmarked) [Example 61, N-(2-amino-4-(trifluoromethyl)benzyl)-2-(3-fluoro-4-(methylsulfonamido)-phenyl)propanamide]

Ki (vanilloid receptor (VR1) [4]): 1.3 nM
Ki [2]: 1.1 nM
IC50 (VR1/TRPV1 receptor): 63.6 nM
Compound: CC(C(=O)NCc1ccc(C(F)(F)F)nc1-c1cccc(F)c1)c1ccc(NS(C)(=O)=O)c(F)c1 (centres unmarked) [Example 148, 2-(3-fluoro-4-methylsulfonamido-phenyl)-N-[2-(3-fluoro-phenyl)-6-trifluoromethyl-pyridin-3-ylmethyl]-propionamide]
inhibition in vivo at 0.3 mg/kg [3]: 45%
inhibition in vivo at 0.3 mg/kg [5]: 44%

Ki (vanilloid receptor (VR1) [4]): 2.1 nM
Ki [2]: 4.5 nM
IC50 (VR1/TRPV1 receptor): 34.3 nM
Compound: CC(C(=S)NCc1ccc(C(F)(F)F)nc1-c1ccc(F)cc1)c1ccc(NS(C)(=O)=O)c(F)c1 (centres unmarked) [Example 130, 2-(3-fluoro-4-methylsulfonamido-phenyl)-N-[2-(4-fluoro-phenyl)-6-trifluoromethyl-pyridin-3-ylmethyl]-thiopropionamide]
inhibition in vivo at 0.3 mg/kg [3]: 58%
inhibition in vivo at 0.3 mg/kg [5]: 41%

inhibition at 1 µM (vanilloid receptor (VR1) [1]; [6]): 12%
Compound: CC(C(=O)NCc1ccc(C(F)(F)F)nc1N1CCS(=O)(=O)CC1)c1ccc(NS(C)(=O)=O)c(F)c1 (centres unmarked) [Compound 314]

inhibition at 5 µM (vanilloid receptor (VR1) [1]; [6]): 78%
inhibition at 0.1 µM (VR1/TRPV1 receptor; @ 0.1 μM, read-out: inhibition in percent, IC50 (human) after pH stimulus): 11%
inhibition at 1 µM (VR1/TRPV1 receptor; @ 1 μM, ne = no effect, read-out: inhibition in percent, IC50 (human) after pH stimulus): 11%
inhibition at 5 µM (VR1/TRPV1 receptor; [7]): 43%
Compound: CC(C(=O)NCc1ccc(C(F)(F)F)nc1-c1ccc2[nH]ccc2c1)c1ccc(NS(C)(=O)=O)c(F)c1 (centres unmarked) [Example 276, 2-(3-fluoro-4-methylsulfonamido-phenyl)-N-[2-(1H-indol-5-yl)-6-trifluoromethyl-pyridin-3-ylmethyl]-propionamide]

Ki (vanilloid receptor (VR1) [4]): 0.5 nM
Ki [2]: 0.6 nM
IC50 (VR1/TRPV1 receptor): 15.4 nM
Compound: Cc1cc(C(C)C(=O)NCc2ccc(C(F)(F)F)nc2N2CCCCC2)ccc1NS(C)(=O)=O (centres unmarked) [Example 127, 2-(4-methylsulfonamido-3-methyl-phenyl)-N-(6′-trifluoromethyl-3,4,5,6-tetrahydro-2H-[1,2′]bipyridinyl-3′-ylmethyl)-propionamide]
inhibition in vivo at 0.3 mg/kg [3]: 6%
inhibition in vivo at 0.3 mg/kg [5]: 22%

inhibition at 1 µM (vanilloid receptor (VR1) [1]; [6]): 7.2%
inhibition at 1 µM ([2]; @ 1 μM, ne = no effect): 8%
Compound: CC(C(=O)NCc1ccc(C(F)(F)F)nc1N1CCN(c2ccncc2)CC1)c1ccc(NS(C)(=O)=O)c(F)c1 (centres unmarked) [Compound 176]
